This assay addresses HPPK (Escherichia coli, UniProt P26281). The assay is described as follows: HPPK binding study by fluorometric titration (Kd). As to conditions: for affinity compared with previously known HPPK inhibitors: comparison in words. The method, then:
Binding studies were carried out at room temperature. Protein (HPPK) and ligand stock solutions were made in 100 mM Tris-HCl, pH 8.3, and their concentrations were determined spectrophotometrically using the following extinction coefficients: 21600 M^−1 cm^−1 at 280 nm for HPPK and 7124 M^−1 cm^−1 at 380 nm for the tetrahydropteridine bisubstrate inhibitors of Formula I. A 3-mL dilute inhibitor solution in a fluorometric cuvette was titrated with the protein stock solution. Fluorescence was measured on a Horiba Jobin Yvon FluoroMax-4 fluorometer. The excitation wavelength and slit were 364-380 and 2-3 nm, respectively, and the emission wavelength and slit were 450-482 and 2-5 nm, respectively. […] For these HPPK preparations, a control experiment, in which a 3-mL buffer solution was titrated with the protein solution, was performed. The control data was subtracted from the titration data. The corrected titration data was then analyzed by nonlinear least-squares regression using the software Origin and the equation: […]
where Fobs is the observed fluorescence, εf and εb are the fluorescence coefficients of the ligand in the free and protein-bound states, respectively, Lt is the total concentration of the ligand, and Et is the total concentration of HPPK. Lt and Et were varied during the titration process according to the following expressions:
where E0 is the concentration of the HPPK stock solution, L0 is the initial concentration of the ligand, V0 is the initial volume of the titration, and ΔV is the total volume of the added HPPK solution.

[1] abbreviates: room temperature, 100 mM Tris-HCl pH 8.3, inhibitor titrated with HPPK, fluorescence, nonlinear least-squares analysis, read-out: Kd.

This is an account of results in US11091509B2, “HPPK inhibitors useful as antibacterial agents” (priority 2016, dated 2021).

As a reminder, the Kd is a measure of binding affinity in units of concentration.

The structures appear in SMILES notation. Read-outs that look alike come from different tables or passages of the source.

Sequence of HPPK (P26281 whole entry): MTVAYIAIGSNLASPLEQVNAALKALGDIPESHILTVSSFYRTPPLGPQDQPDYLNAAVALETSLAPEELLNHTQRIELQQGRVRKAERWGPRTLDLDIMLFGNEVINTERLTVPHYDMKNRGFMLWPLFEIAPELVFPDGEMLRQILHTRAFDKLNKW

In turn, `CC1(C)Nc2nc(N)[nH]c(=O)c2N=C1C(=O)NCCN(CC(=O)NC[C@H]1O[C@@H](n2cnc3c(N)ncnc32)C(O)C1O)CP(=O)(O)O` (stereo partly shown) [Compound 115] had a Kd of 2900 nM.
For `CC1(C)Nc2nc(N)[nH]c(=O)c2N=C1C(=O)NCCN1CC[C@@H](SC[C@H]2O[C@@H](n3cnc4c(N)ncnc43)[C@H](O)[C@@H]2O)C[C@@H]1C(=O)O` [Compound 120, (2R,4R)-1-(2-(2-amino-7,7-dimethyl-4-oxo-3,4,7,8-tetrahydropteridine-6-carboxamido)ethyl)-4-((((2S,3S,4R,5R)-5-(6-amino-9H-purin-9-yl)-3,4-dihydroxytetrahydrofuran-2-yl)methyl)thio)piperidine-2-carboxylic acid], under setting [1], the Kd was 300 nM.
Take `CC1(C)Nc2nc(N)[nH]c(=O)c2N=C1C(=O)NC1CCN(CCSC[C@H]2O[C@@H](n3cnc4c(N)ncnc43)[C@H](O)[C@@H]2O)CC1` [Compound 101, 2-amino-N-(1-(2-((((2S,3S,4R,5R)-5-(6-amino-9H-purin-9-yl)-3,4-dihydroxytetrahydrofuran-2-yl)methyl)thio)ethyl)piperidin-4-yl)-7,7-dimethyl-4-oxo-3,4,7,8-tetrahydropteridine-6-carboxamide]: the Kd under setting [1] was 11500 nM.
For the compound `CC1(C)Nc2nc(N)[nH]c(=O)c2N=C1C(=O)NCC(=O)N(CC(=O)NC[C@H]1O[C@@H](n2cnc3c(N)ncnc32)C(O)C1O)CP(=O)(O)O` (stereo partly shown) [Compound 114], binding was put at a Kd of 1800 nM and the “affinity compared with previously known HPPK inhibitors” value is “significantly higher”.
Take `CC1(C)Nc2nc(N)[nH]c(=O)c2N=C1C(=O)NCCN(CCSC[C@H]1O[C@@H](n2cnc3c(N)ncnc32)[C@H](O)[C@@H]1O)CP(=O)(O)O` [Compound 118, (((2-(2-amino-7,7-dimethyl-4-oxo-3,4,7,8-tetrahydropteridine-6-carboxamido)ethyl)(2-((((2S,3S,4R,5R)-5-(6-amino-9H-purin-9-yl)-3,4-dihydroxytetrahydrofuran-2-yl)methyl)thio)ethyl)amino)methyl)phosphonic acid]: the affinity, expressed as Kd, was 400 nM and the “affinity compared with previously known HPPK inhibitors” value is “significantly higher”.
